Data reported in patent US20040152119A1, “Solid phase sequencing” (priority 2003, published 2004).

System: cloned DNA polymerase I genetically engineered to eliminate 3′-5′ exonuclease activity, 5′-3′exonuclease activity and discrimination against dideoxynucleotides
Experiment: Nucleic acid sequence detection by polymerase incorporation of gamma-phosphate-labeled dideoxynucleotide in the presence of shrimp alkaline phosphatase (fluorescence)
Assay type: biochemical
Conditions: 23° C.; for dye emission with Primer: Template 1: next template nucleotide dC (SEQ ID NO: 2); for dye emission with Primer: Template 2: next template nucleotide dT (SEQ ID NO: 3)
Method: Reactions were assembled at room temperature (23° C.) using the dideoxynucleotide of Example (1). Reactions contained primer template combinations having a single oligonucleotide primer (represented by SEQ ID NO: 1) annealed to one of two different oligonucleotide templates with either a dC or a dT as the next template nucleotide adjacent the 3′ terminus of the primer, corresponding to SEQ ID NO: 2 and SEQ ID NO: 3, respectively.
Referring now to FIG. 1, for template 1 (SEQ ID NO: 2) in the present example, DNA polymerase would be expected to extend the primer with labeled ddGTP. Similarly, for template 2 (SEQ ID NO: 3) in FIG. 1, DNA polymerase would be expected to extend the primer with ddATP, but not with labeled ddGTP.
Reaction conditions: A 70 μl reaction containing 25 mM Tris, pH 8.0, 5% glycerol 5 mM MgC12, 0.5 mM beta-mercaptoethanol, 0.01% tween-20, 0.25 units shrimp alkaline phosphatase, 100 nM primer annealed to template (the next template nucleotide is either dCMP or dTMP, as indicated), and 2 μM ddGTP-CF3-Coumarin was assembled in a quartz fluorescence ultra-microcuvet in a LS-55 Luminescence Spectrometer (Perkin Elmer), operated in time drive mode. Excitation and emission wavelengths are 390 nm and 500 nm respectively. Slit widths were 5 nm for excitation slits, 15 nm for emission slits. The reaction was initiated by the addition of 0.35 μl (11 units) of a cloned DNA polymerase I genetically engineered to eliminate 3′-5′ exonuclease activity, 5′-3′exonuclease activity and discrimination against dideoxynucleotides and 0.25 mM MnCl2. […]

[1] = 2 μM ddATP-CN-Coumarin, excitation 410 nm, emission 450 nm, FIG. 2
[2] = 2 μM ddGTP-CF3-Coumarin, excitation 390 nm, emission 500 nm, FIG. 1

N#Cc1cc2ccc(OP(=O)(O)OP(=O)(O)OP(=O)(O)OC[C@@H]3CC[C@H](n4cnc5c(N)ncnc54)O3)cc2oc1=O [gamma labeled ddATP, γ-(3-Cyanocoumarinyl)ddATP]
dye emission with Primer: Template 1 [1]: No detectable dye emission
dye emission with Primer: Template 2 [1]: dye emission was detected

Nc1nc2c(ncn2[C@H]2CC[C@@H](COP(=O)(O)OP(=O)(O)OP(=O)(O)Oc3ccc4c(C(F)(F)F)cc(=O)oc4c3)O2)c(=O)[nH]1 [gamma labeled ddGTP, γ-(4-trifluoromethylcoumarinyl)ddGTP]
dye emission with Primer: Template 1 [2]: dye emission was detected
dye emission with Primer: Template 2 [2]: No detectable dye emission
